Experimental data as given in patent publication US12391666B2, “Indoline-1-formamide compound, preparation method therefor, and medical use thereof” (Beijing Innocare Pharma Tech Co., Ltd., priority 2018, dated 2025).

Key:
Assay type in all cases: biochemical
VEGFR1 = VEGFR1 (Homo sapiens (Human), UniProt P17948); test: VEGFR1 activity inhibition testing (HTRF in vitro kinase assay); details: humanized recombinant VEGFR1 protein, 0.8 μM ATP
Description: VEGFR1 Activity Inhibition Testing
An in vitro kinase assay was used to evaluate the effect of the compounds of the present invention on VEGFR1 activity.
(§1) The experimental method is summarized as follows:
The in vitro activity of VEGFR1 was determined by detecting the phosphorylation level of the substrate in the kinase reaction using a homogeneous time-resolved fluorescence (HTRF) kinase detection kit (Cisbio, catalog number 62TKOPEC). The reaction buffer contains an enzyme reaction buffer (1×) provided in the kit, 5 mM MgCl2, 1 mM MnCl2, 1 mM DTT. […]
4 μL of Compound solution and 2 μL of VEGFR1 kinase solution were added to a 384-well detection plate (Corning, catalog number 4512), mixed uniformly and incubated at room temperature for 15 minutes. […] Then 10 μL of the assay buffer equal to the volume of the reaction was added, mixed uniformly and allowed to stand at room temperature for 30 minutes, and then the reaction progress was detected with an Envision plate reader (Perkin Elmer) at wavelengths of 620 nm and 665 nm. […] The inhibition percentage of the compound on VEGFR1 activity can be calculated using the following equation: Percentage of inhibition=100−100*(signal value of test compound at a specific concentration−signal value of negative control)/(signal value of positive control−signal value of negative control) […]

VEGFR2 = VEGFR2 (Homo sapiens (Human), UniProt P35968); test: VEGFR2 activity inhibition testing (HTRF in vitro kinase assay); details: humanized recombinant VEGFR2 protein, 3.5 μM ATP
Sequence of VEGFR2 (P35968 20-1356): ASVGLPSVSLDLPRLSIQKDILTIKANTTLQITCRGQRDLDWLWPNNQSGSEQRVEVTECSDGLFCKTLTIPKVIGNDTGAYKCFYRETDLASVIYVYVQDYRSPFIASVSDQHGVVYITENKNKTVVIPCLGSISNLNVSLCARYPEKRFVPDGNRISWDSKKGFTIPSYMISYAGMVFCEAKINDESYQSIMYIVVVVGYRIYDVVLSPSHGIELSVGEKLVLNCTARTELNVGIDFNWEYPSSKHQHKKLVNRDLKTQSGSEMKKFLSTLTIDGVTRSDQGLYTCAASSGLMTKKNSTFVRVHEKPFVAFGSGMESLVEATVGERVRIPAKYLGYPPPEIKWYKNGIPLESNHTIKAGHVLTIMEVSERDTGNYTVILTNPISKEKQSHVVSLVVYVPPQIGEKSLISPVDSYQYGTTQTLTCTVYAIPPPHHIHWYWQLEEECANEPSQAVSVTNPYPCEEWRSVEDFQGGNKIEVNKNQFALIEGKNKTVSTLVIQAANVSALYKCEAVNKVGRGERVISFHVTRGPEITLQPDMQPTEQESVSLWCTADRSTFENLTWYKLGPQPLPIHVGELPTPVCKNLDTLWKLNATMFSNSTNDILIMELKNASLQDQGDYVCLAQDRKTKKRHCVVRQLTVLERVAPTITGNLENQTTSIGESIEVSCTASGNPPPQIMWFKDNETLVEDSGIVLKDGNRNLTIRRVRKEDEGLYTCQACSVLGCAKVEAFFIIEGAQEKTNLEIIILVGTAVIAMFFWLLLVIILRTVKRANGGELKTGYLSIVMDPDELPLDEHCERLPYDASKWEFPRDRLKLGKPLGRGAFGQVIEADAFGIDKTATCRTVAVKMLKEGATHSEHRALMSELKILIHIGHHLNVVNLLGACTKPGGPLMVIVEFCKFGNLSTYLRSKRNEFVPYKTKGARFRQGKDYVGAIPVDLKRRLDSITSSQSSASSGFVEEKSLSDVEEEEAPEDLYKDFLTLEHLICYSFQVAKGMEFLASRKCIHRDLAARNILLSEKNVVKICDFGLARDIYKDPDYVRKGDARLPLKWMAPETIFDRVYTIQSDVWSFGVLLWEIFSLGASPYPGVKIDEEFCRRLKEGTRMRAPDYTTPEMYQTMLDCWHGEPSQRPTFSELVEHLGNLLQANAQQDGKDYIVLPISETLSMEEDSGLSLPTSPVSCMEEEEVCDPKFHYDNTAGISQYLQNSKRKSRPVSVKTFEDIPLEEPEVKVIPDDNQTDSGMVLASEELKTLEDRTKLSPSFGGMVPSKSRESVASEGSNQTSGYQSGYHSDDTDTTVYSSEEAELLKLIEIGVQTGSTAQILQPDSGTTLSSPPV
Description: (§2) The IC50 value of the compound is calculated from 8 concentration points with the XLfit (ID Business Solutions Ltd., UK) software through the following equation: Y=Bottom+(Top−Bottom)/(1+10^((log IC50−X)*slope factor)) • where Y is the inhibition percentage, X is the logarithm of the concentration of the test compound, Bottom is the maximum inhibition percentage, Top is the minimum inhibition percentage, and slope factor is the slope coefficient of the curve. VEGFR2 Activity Inhibition Testing
An in vitro kinase assay was used to evaluate the effect of the compounds of the present invention on VEGFR2 activity.
as §1
The in vitro activity of VEGFR2 was determined by detecting the phosphorylation level of the substrate in the kinase reaction using a homogeneous time-resolved fluorescence (HTRF) kinase detection kit (Cisbio, catalog number 62TKOPEC). The reaction buffer contains an enzyme reaction buffer (1×) provided in the kit, 5 mM MgCl2, 1 mM MnCl2, 1 mM DTT, 0.01% BSA and 0.005% Tween 20. The humanized recombinant VEGFR2 protein (Cat. No. 10012-H20B1) was purchased from Sino Biological Inc., and diluted to a 0.3 ng/μL kinase solution with the reaction buffer. The substrate reaction solution includes 0.3 μM biotin-labeled tyrosine kinase substrate and 3.5 μM ATP which were diluted with the reaction buffer. The assay buffer includes 0.1 ng/μL Eu^3+ labeled cage antibody and 18.75 nM streptavidin labeled XL665 (Cisbio, catalog number 610SAXLB) which were diluted with the reaction buffer.
The compound was dissolved and diluted to 10 μM in 100% DMSO, then a 4-fold serial dilution was performed with DMSO to the lowest concentration of 0.61 nM, and each concentration point was diluted 40-fold with the reaction buffer.
4 μL of Compound solution and 2 μL of VEGFR2 kinase solution were added to a 384-well detection plate (Corning, catalog number 4512), mixed uniformly and incubated at room temperature for 15 minutes. Then 4 μL of the substrate reaction solution was added, and the reaction mixture was incubated at room temperature for 30 minutes. Then 10 μL of the assay buffer equal to the volume of the reaction was added, mixed uniformly and allowed to stand at room temperature for 30 minutes, and then the reaction progress was detected with an Envision plate reader (Perkin Elmer) at wavelengths of 620 nm and 665 nm. The ratio of 665/620 is positively correlated with the phosphorylation degree of the substrate, thereby detecting the activity of VEGFR2 kinase. In this experiment, the group without VEGFR2 kinase protein was used as a negative control (100% inhibition), and the group with VEGFR2 kinase protein but no compound was used as a positive control (0% inhibition). The inhibition percentage of the compound on VEGFR2 activity can be calculated using the following equation: Percentage of inhibition=100−100*(signal value of test compound at a specific concentration−signal value of negative control)/(signal value of positive control—signal value of negative control)
as §2, with “VEGFR3” for “VEGFR2”

VEGFR3 = VEGFR3 (Homo sapiens (Human), UniProt P35916); test: VEGFR3 activity inhibition testing (HTRF in vitro kinase assay); details: humanized recombinant VEGFR3 protein, 0.4 μM ATP
Sequence of VEGFR3 (P35916 25-1363): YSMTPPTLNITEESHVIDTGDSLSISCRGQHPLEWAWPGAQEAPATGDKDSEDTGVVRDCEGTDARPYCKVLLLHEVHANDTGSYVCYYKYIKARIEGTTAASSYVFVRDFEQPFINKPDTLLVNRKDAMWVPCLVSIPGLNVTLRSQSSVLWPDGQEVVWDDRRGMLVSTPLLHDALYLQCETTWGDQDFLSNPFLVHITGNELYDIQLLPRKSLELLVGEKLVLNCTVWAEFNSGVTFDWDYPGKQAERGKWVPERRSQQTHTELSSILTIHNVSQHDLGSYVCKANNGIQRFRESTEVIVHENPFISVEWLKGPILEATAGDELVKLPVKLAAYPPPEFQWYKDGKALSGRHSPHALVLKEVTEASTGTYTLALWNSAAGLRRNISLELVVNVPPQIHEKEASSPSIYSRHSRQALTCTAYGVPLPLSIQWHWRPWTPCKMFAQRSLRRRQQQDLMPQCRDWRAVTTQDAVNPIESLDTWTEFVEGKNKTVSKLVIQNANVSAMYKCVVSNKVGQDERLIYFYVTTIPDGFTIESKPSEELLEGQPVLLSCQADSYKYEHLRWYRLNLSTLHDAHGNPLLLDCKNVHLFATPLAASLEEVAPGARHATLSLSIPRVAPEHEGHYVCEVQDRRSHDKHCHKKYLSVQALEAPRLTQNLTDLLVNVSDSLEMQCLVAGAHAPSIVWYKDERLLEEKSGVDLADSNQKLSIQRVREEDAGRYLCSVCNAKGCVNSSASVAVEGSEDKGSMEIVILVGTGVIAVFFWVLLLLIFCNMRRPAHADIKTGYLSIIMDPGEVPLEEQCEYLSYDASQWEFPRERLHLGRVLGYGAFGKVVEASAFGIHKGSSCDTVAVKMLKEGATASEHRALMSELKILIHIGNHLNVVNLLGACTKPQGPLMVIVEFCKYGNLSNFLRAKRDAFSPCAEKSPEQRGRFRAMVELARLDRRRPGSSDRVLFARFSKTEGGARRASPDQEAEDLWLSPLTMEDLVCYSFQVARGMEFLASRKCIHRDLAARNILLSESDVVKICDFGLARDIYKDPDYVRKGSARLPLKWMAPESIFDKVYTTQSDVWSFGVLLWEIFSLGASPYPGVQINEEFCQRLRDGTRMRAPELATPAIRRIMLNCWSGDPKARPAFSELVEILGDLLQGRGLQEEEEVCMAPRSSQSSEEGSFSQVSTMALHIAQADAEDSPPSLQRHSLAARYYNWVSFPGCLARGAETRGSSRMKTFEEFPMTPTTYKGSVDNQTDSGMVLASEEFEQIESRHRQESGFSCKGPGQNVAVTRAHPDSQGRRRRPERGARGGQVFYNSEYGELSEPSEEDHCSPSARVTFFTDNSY
Description: as §2, with “VEGFR3” for “VEGFR2”
An in vitro kinase assay was used to evaluate the effect of the compounds of the present invention on VEGFR3 activity.
as §1
The in vitro activity of VEGFR3 was determined by detecting the phosphorylation level of the substrate in the kinase reaction using a HTRF kinase detection kit (Cisbio, catalog number 62TK0PEC). […]
4 μL of Compound solution and 2 μL of VEGFR3 kinase solution were added to a 384-well detection plate (Corning, catalog number 4512), mixed uniformly and incubated at room temperature for 15 minutes. […] Then 10 μL of the assay buffer equal to the volume of the reaction was added, mixed uniformly and allowed to stand at room temperature for 30 minutes, and then the reaction progress was detected with an Envision plate reader (Perkin Elmer) at wavelengths of 620 nm and 665 nm. […]

Sequence of VEGFR1 (P17948 27-1338): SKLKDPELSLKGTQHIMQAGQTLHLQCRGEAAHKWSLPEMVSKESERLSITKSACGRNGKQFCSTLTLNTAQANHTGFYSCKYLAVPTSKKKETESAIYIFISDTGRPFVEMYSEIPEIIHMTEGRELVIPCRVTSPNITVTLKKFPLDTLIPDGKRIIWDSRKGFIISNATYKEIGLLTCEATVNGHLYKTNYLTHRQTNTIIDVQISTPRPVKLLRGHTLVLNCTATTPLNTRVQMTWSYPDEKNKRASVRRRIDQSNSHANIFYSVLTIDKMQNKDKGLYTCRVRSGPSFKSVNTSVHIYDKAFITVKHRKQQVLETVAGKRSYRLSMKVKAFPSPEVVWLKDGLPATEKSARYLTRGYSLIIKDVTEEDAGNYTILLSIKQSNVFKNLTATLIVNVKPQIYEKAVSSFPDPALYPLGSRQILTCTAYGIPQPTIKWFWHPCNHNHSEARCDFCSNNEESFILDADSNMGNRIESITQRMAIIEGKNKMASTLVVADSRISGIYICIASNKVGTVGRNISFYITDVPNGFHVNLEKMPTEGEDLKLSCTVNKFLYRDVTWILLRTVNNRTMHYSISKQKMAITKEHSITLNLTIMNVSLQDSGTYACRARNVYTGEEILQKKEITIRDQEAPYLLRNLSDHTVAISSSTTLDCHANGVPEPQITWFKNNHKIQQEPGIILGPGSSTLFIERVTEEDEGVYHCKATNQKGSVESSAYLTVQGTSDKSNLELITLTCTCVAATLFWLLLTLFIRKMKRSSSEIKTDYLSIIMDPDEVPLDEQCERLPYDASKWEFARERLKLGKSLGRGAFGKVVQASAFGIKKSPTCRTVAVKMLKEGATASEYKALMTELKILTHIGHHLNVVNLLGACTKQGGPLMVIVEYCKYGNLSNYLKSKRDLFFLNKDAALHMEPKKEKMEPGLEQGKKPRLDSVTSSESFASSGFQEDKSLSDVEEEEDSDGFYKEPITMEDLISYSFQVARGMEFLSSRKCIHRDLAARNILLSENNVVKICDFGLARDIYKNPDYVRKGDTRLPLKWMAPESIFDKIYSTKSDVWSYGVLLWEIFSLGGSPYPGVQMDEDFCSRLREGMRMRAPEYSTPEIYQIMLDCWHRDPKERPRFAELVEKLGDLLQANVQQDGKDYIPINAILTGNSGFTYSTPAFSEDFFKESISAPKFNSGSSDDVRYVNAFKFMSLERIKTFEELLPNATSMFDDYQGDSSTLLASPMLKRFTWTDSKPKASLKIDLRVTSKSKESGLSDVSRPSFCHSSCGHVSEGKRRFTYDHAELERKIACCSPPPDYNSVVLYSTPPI

IC50 (VEGFR1) | IC50 (VEGFR2) | IC50 (VEGFR3) | Compound
 | 10 to 100 nM |  | COc1cc2nccc(Oc3ccc4c(c3)CCN4C(=O)NC3CC3)c2cc1OC [Compound 5, N-cyclopropyl-5-((6,7-dimethoxyquinolin-4-yl)oxy)indoline-1-carboxamide]
 | < 10 nM |  | COc1cc2nccc(Oc3ccc4c(c3)CCN4C(=O)Nc3cc(C)on3)c2cc1C(N)=O [Compound 6, 7-methoxy-4-((1-((5-methylisoxazol-3-yl)carbamoyl)indolin-5-yl)oxy)quinoline-6-carboxamide]
 | 10 to 100 nM |  | NC(=O)c1cc2c(Oc3ccc4c(c3)CCN4C(=O)NC3CC3)ccnc2cc1O [Compound 2, 4-((1-(cyclopropylcarbamoyl)indolin-5-yl)oxy)-7-hydroxyquinoline-6-carboxamide]

Second part, the compound before the results:

Compound | IC50 (VEGFR1) | IC50 (VEGFR2) | IC50 (VEGFR3)
COc1cc2nccc(Oc3ccc4c(c3)CCN4C(=O)NC3CC3)c2cc1C(N)=O [Compound 1, 4-((1-(cyclopropylcarbamoyl)indolin-5-yl)oxy)-7-methoxyquinoline-6-carboxamide] | 10 to 100 nM | < 10 nM | < 10 nM
CNC(=O)N1CCc2cc(Oc3ccnc4cc(OC)c(C(N)=O)cc34)ccc21 [Compound 3, 7-methoxy-4-((1-(methylcarbamoyl)indolin-5-yl)oxy)quinoline-6-carboxamide] |  | 10 to 100 nM | 
COc1cc2nccc(Oc3ccc4c(c3)CCN4C(=O)Nc3ccc(F)cc3)c2cc1C(N)=O [Compound 4, 4-((1-((4-fluorophenyl)carbamoyl)indolin-5-yl)oxy)-7-methoxyquinoline-6-carboxamide] |  | < 10 nM | 
